Experimental data: patent US9422357B2, “Glycosylated polypeptide and drug composition containing said polypeptide” (priority 2011, dated 2016)

Assays:
[1] = Pharmacokinetics test with rats (intravenous and subcutaneous administration); conditions: rat
Method: PBS solution was prepared by dissolving 1 tablet of Phosphate buffered saline (P4417 from Sigma) in 200 mL of ultrapure water.
0.2 mL of the collected blood was promptly mixed with 0.2 mL of the aprotinin-containing EDTA-PBS solution prepared in the above 68-1, and left on ice for 30 minutes or more. […] As blank plasma, plasma obtained by similarly treating the blood collected from untreated rat cervical vein was employed. Plasma samples were frozen in storage until employed for measurement. […] The standard solution for creating a standard curve was prepared as follows. First, the blank plasma obtained in the above 68-2 was diluted with the assay buffer supplied in the EIA kit similarly to the plasma sample, and this was used as the assay buffer for standard solution preparation (for example, when diluting the plasma sample to 100-fold, 1/100 amount of blank plasma was added to the assay buffer supplied in the EIA kit, and this was used as the assay buffer for standard solution preparation). […] Moreover, the predicted initial concentration (C0) was determined by the extrapolation method for intravenous administration, t1/2 and MRT were calculated, and the maximum plasma concentration (Cmax) was determined from the actual value for subcutaneous administration.
Moreover, the parameters obtained were employed to calculate bioavailability from the following mathematical formula. […]

amylase, LDH, CPK = assay: Gastrointestinal obstruction model, blood parameters (amylase, LDH, CPK); conditions: Table 10; rat gastrointestinal obstruction model
Method: This experimental line was carried out as a test line to evaluate the promotion of intestinal fluid absorption or the secretory suppressing action, using the change in the intestinal fluid weight in the jejunum after bowel obstruction as an indicator. Moreover, blood parameters of deviation enzymes amylase (pancreas), lactate dehydrogenase (LDH, liver), and creatine phosphokinase (CPK, skeletal muscle, cardiac muscle etc.) were measured as indicators of tissue disorders.
Anesthesia was introduced with inhalation of 2% isoflurane and laughing gas:oxygen=7:3, and this was maintained throughout the surgery. A median incision was made in the abdomen, and the jejunum at about 10 cm from the musculus suspensorius duodeni was ligated with a surgical suture. Then, the incision site was promptly sutured, and the rats were fasted until compound administration. […]
One hour after compound administration, a median incision was made in the abdomen under inhalation anesthesia, and 1.5 mL of blood was collected from the abdominal vena cava. […] The fluid and blood on the jejunum surface were removed with a paper towel, nerves, blood vessels, and fat attached to the jejunum was removed, this was cut into 6 cm lengths, and wet weight was measured. This was then dried at 36 degrees for 24 hours, and dry weight was measured. […]

Row | SMILES | C0, intravenous administration ([1]; Table 5D, no unit at the table (Table 4: nM), extrapolation) | C0, intravenous administration ([1]; Tables 5B-5F, no unit printed in these tables (Table 5A footnote: nM)) | LDH activity compared to the vehicle (amylase, LDH, CPK) | amylase activity compared to the vehicle (amylase, LDH, CPK)
1 | C[C@H](N)C(=O)NCC(=O)N[C@H]1CSSC[C@@H](C(=O)O)NC(=O)[C@H](CO)NC(=O)[C@H]([C@@H](C)O)NC(=O)[C@H](Cc2ccccc2)NC(=O)[C@H]([C@@H](C)O)NC(=O)[C@H](CCCCN)NC(=O)[C@H](Cc2c[nH]c3ccccc23)NC(=O)[C@H](Cc2ccccc2)NC(=O)[C@H](Cc2ccccc2)NC(=O)[C@H](CC(N)=O)NC(=O)[C@H](CCCCN)NC1=O [SRIF14] | 819 | 819 |  | 
2 | C[C@@H](O)[C@@H]1NC(=O)[C@H](CCCCN)NC(=O)[C@@H](Cc2c[nH]c3ccccc23)NC(=O)[C@H](Cc2ccccc2)NC(=O)[C@@H](NC(=O)[C@H](N)Cc2ccccc2)CSSC[C@@H](C(=O)N[C@H](CO)[C@@H](C)O)NC1=O [octreotide] |  |  | low value compared to the vehicle | equivalent to the vehicle
